Our source for the IC50, Activity and viability values is ChEMBL document CHEMBL5214955, “Design, synthesis and activity evaluation of Hedgehog inhibitor Itraconazole derivatives in A549 cells” (Bioorg Med Chem Lett, 2022).

The source made the active and inactive calls. The calls are words filed in the database; no cut-off is given here.

Data set [1] can be described thus: Cytotoxicity against human L02 cells assessed as inhibition of cell proliferation incubated for 48 hrs by MTT assay. In kind it is toxicity, cell-based.
For a further data set, the system named is HepG2. Kind of data set: Antiproliferative activity against human HepG2 cells assessed as inhibition of cell proliferation incubated for 48 hrs by MTT assay. In kind it is functional, cell-based. The settings on record: HepG2, 48 h. A general note: Tetrazolium dyes change colour on reduction, which living cells bring about.
A short description of data set [2]: Inhibition of hedgehog signalling pathway in human A549 cells assessed as reduction in Gli gene expression incubated for 24 hrs by qPCR analysis. Format: cell-based. Conditions: A549, 24 h.
Data set [3] concerns A549. Kind of data set: Antiproliferative activity against human A549 cells assessed as inhibition of cell proliferation incubated for 48 hrs by MTT assay. In kind it is functional, cell-based. The settings on record: A549, 48 h.
Data set [4] relates to A549. Kind of data set: Induction of mitochondrial membrane potential loss in human A549 cells assessed as assessed as proportion of MMP decreased cells at 30 uM and measured after 4 hrs by JC-1 staining based flow cytometry assay. In kind it is functional, cell-based.
For data set [5], the system named is A549. Kind of data set: Induction of intracellular reactive oxygen species production in human A549 cells assessed as increase in number ROS positive cells at 30 uM and measured after 4 hrs by H2DCFH-DA staining based flow cytometric analysis. In kind it is functional, cell-based.
Data set [6] concerns A549. Kind of data set: Induction of apoptosis in human A549 cells assessed as late apoptotic cells at 30 uM incubated for 24 hrs by Annexin V-FITC/PI staining based flow cytometric analysis (reference value: 1.40%). Format: functional. On the technique in general: A flow cytometer gives signals particle by particle.
Data set [7] deals with A549. Kind of data set: Induction of apoptosis in human A549 cells assessed as necrotic cells at 30 uM incubated for 24 hrs by Annexin V-FITC/PI staining based flow cytometric analysis (reference value: 0.084%). In kind it is functional.
Data set [8] deals with A549. Kind of data set: Induction of apoptosis in human A549 cells assessed as early apoptotic cells at 30 uM incubated for 24 hrs by Annexin V-FITC/PI staining based flow cytometric analysis (reference value: 0.316%). In kind it is functional.
In data set [9] the test system is A549. Kind of data set: Induction of intracellular reactive oxygen species production in human A549 cells assessed as increase in number ROS positive cells at 30 uM and measured after 24 hrs by H2DCFH-DA staining based flow cytometric analysis (Rvb=1.10%). Format: functional.
The subject of data set [10] is A549. Kind of data set: Induction of mitochondrial membrane potential loss in human A549 cells assessed as assessed as proportion of MMP decreased cells at 30 uM and measured after 24 hrs by JC-1 staining based flow cytometry assay (reference value: 7.50%). Format: functional. The arrangement: scale not given: the % may be the effect or the level left.
Data set [11] deals with A549. Kind of data set: Induction of intracellular reactive oxygen species production in human A549 cells assessed as increase in number ROS positive cells at 30 uM and measured after 4 hrs by DCFH-DA probe based confocal microscopy. In kind it is functional, cell-based.
The subject of data set [12] is A549. Kind of data set: Antiproliferative activity against human A549 cells assessed as inhibition of clone formation at 10 uM incubated for 1 day followed by culture in new medium for 7 days by crystal violet staining based assay relative to control. Format: functional. On the set-up: scale not given: the % may be the effect or the level left. The settings on record: time 8 day.

For data set [13], the system named is A549. Kind of data set: Induction of apoptosis in human A549 cells assessed as viable cells at 30 uM incubated for 24 hrs by Annexin V-FITC/PI staining based flow cytometric analysis (reference value: 98.2%). Conditions: read-out: Activity. In kind it is functional.

In the case of `O=C(CCCc1ccccc1)Nc1ccc(N2CCN(c3ccc(OC[C@@H]4CO[C@@](Cn5cncn5)(c5ccc(Cl)cc5Cl)O4)cc3)CC2)cc1`, the IC50 at 48 h in data set [1] was greater than 50 µM. Moreover, the concentration for half-maximal inhibition (IC50) in the data set with HepG2 is 10.8 µM; in [2] it was 782 nM; in the data set with A549 [3], 3.78 µM.

With `CCC(=O)Nc1ccc(N2CCN(c3ccc(OC[C@@H]4CO[C@@](Cn5cncn5)(c5ccc(Cl)cc5Cl)O4)cc3)CC2)cc1`, in data set [1], the IC50 at 48 h is greater than 50 µM. For the same molecule, the half-inhibitory concentration (IC50) with HepG2 worked out at 5.46 µM; in [2], 873 nM; in the data set with A549 [3], 2.55 µM.

Take `O=C(CCCCc1ccccc1)Nc1ccc(N2CCN(c3ccc(OC[C@@H]4CO[C@@](Cn5cncn5)(c5ccc(Cl)cc5Cl)O4)cc3)CC2)cc1`: in data set [1], the IC50 at 48 h was greater than 50 µM. Besides, the concentration for half-maximal inhibition (IC50) was determined as 7.01 µM in the data set on HepG2, 457 nM in data set [2] and 2.61 µM in the data set on A549 [3].

With `O=C(CCc1ccccc1)Nc1ccc(N2CCN(c3ccc(OC[C@@H]4CO[C@@](Cn5cncn5)(c5ccc(Cl)cc5Cl)O4)cc3)CC2)cc1`, in data set [1], the 50% inhibitory concentration (IC50) at 48 h was greater than 50 µM. Moreover, the outcome with A549 [4], in the data set with A549 [5] and with A549 [11] was Active. For the same molecule, the IC50 with HepG2 was determined as 5.34 µM; in data set [2] it was 89 nM; with A549 [3], 2.06 µM. For the same molecule, the Activity turned out to be 51.8% in the data set with A549 [6]; 1.07% in the data set with A549 [7]; 12.4% in the data set with A549 [8]; 62.9% in the data set with A549 [9]; 55.4% in the data set on A549 [10]; 22% in the data set with A549 [12]. Further, the viability at 30 µM with A549 [13] stood at 34.7%.

`O=C(CC1CCOCC1)Nc1ccc(N2CCN(c3ccc(OC[C@@H]4CO[C@@](Cn5cncn5)(c5ccc(Cl)cc5Cl)O4)cc3)CC2)cc1`: in data set [1], the half-maximal inhibitory concentration (IC50) at 48 h was greater than 50 µM. Besides, the half-inhibitory concentration (IC50) in the data set with HepG2 worked out at 21.1 µM; in the data set with A549 [3], 10 µM.

Take `O=C(Cc1cccs1)Nc1ccc(N2CCN(c3ccc(OC[C@@H]4CO[C@@](Cn5cncn5)(c5ccc(Cl)cc5Cl)O4)cc3)CC2)cc1`: the 50% inhibitory concentration (IC50) at 48 h in data set [1] is greater than 50 µM. Besides, the outcome in the data set on A549 [4], in the data set with A549 [5] and in the data set with A549 [11] was Active. Also, the IC50 with HepG2 was found to be 5.05 µM; in data set [2], 251 nM; in the data set on A549 [3] it was 2.13 µM. Besides, the Activity with A549 [6] stood at 46.1%; in the data set on A549 [7], 1.89%; in the data set on A549 [8], 7.54%; in the data set on A549 [9] it was 53%; in the data set on A549 [10] it was 44.9%; in the data set on A549 [12], 28%. Further, the viability at 30 µM with A549 [13] is 44.5%.

As to `CCC(C)n1ncn(-c2ccc(N3CCN(c4ccc(OCC5COC(Cn6cncn6)(c6ccc(Cl)cc6Cl)O5)cc4)CC3)cc2)c1=O` (stereo unspecified) [ITRACONAZOLE], the IC50 at 48 h in data set [1] was greater than 50 µM. Further, the figures for the half-maximal inhibitory concentration (IC50) (in the data set on HepG2; in [2]; in the data set on A549 [3]) were 7.87 µM, 125 nM and 3 µM, respectively. The Activity came to 34.6% in the data set with A549 [6]; 3.84% in the data set on A549 [7]; 7.65% with A549 [8]; 38.3% with A549 [9]; 36.3% with A549 [10]; 34% in the data set with A549 [12]. For the same molecule, the viability at 30 µM in the data set on A549 [13] was 53.9%.

Take `O=C(Nc1ccc(N2CCN(c3ccc(OC[C@@H]4CO[C@@](Cn5cncn5)(c5ccc(Cl)cc5Cl)O4)cc3)CC2)cc1)c1ccco1`: in [1], the concentration for half-maximal inhibition (IC50) at 48 h is greater than 50 µM. For the same molecule, the results for the IC50 in the data set with HepG2 and in the data set with A549 [3] were 22.3 µM and 10.5 µM, respectively.

Turning to `O=C(Nc1ccc(N2CCN(c3ccc(OC[C@@H]4CO[C@@](Cn5cncn5)(c5ccc(Cl)cc5Cl)O4)cc3)CC2)cc1)c1cccs1`, in data set [1], the half-inhibitory concentration (IC50) at 48 h is greater than 50 µM. Further, the half-inhibitory concentration (IC50) is 9.77 µM in the data set on HepG2 and 4.33 µM in the data set on A549 [3].

`CCCC(=O)Nc1ccc(N2CCN(c3ccc(OC[C@@H]4CO[C@@](Cn5cncn5)(c5ccc(Cl)cc5Cl)O4)cc3)CC2)cc1`: the IC50 at 48 h in [1] is greater than 50 µM. Besides, the IC50 stood at 9.93 µM in the data set on HepG2 and 2.99 µM in the data set on A549 [3].

For the molecule `O=C(Nc1ccc(N2CCN(c3ccc(OC[C@@H]4CO[C@@](Cn5cncn5)(c5ccc(Cl)cc5Cl)O4)cc3)CC2)cc1)c1cccc(F)c1`, in [1], the IC50 at 48 h is greater than 50 µM. The IC50 in the data set with HepG2 stood at 10.8 µM; in the data set on A549 [3] it was 6.64 µM.

Take `O=C(Nc1ccc(N2CCN(c3ccc(OC[C@@H]4CO[C@@](Cn5cncn5)(c5ccc(Cl)cc5Cl)O4)cc3)CC2)cc1)c1ccc(F)c(F)c1`: the half-maximal inhibitory concentration (IC50) at 48 h in data set [1] was greater than 50 µM. For the same molecule, the results for the IC50 (in the data set on HepG2; in data set [2]; with A549 [3]) were 19.9 µM, 844 nM and 8.69 µM, respectively.

As to `Cc1ccc(C(=O)Nc2ccc(N3CCN(c4ccc(OC[C@@H]5CO[C@@](Cn6cncn6)(c6ccc(Cl)cc6Cl)O5)cc4)CC3)cc2)o1`, the IC50 at 48 h in data set [1] was greater than 50 µM. For the same molecule, the concentration for half-maximal inhibition (IC50) with HepG2 came out at 8.7 µM; in the data set with A549 [3], 4.75 µM.

Regarding `CCCCC(=O)Nc1ccc(N2CCN(c3ccc(OC[C@@H]4CO[C@@](Cn5cncn5)(c5ccc(Cl)cc5Cl)O4)cc3)CC2)cc1`, the half-inhibitory concentration (IC50) at 48 h in data set [1] was greater than 50 µM. Further, the results for the IC50 with HepG2 and in the data set on A549 [3] were 14.1 µM and 5.34 µM, respectively.

The IC50 is the concentration at which inhibition is half-maximal.
